96 molecules from ChEMBL document CHEMBL3507680, “University of Dundee, Gates Library screen for HepG2 cell viability” can be followed below.

The nature of the data set: Human HepG2 cell viability assay in 384 well format. The class given is toxicity, cell-based. Set-up: dose 125 nL, time 70.5 hour; cytotoxicity at 70.5 h: concentration not given beside the values. Particulars: HepG2 cells, read-out: Inhibition.

Take `COCCn1nc(C(=O)N2CCCC2c2cccc(F)c2)ccc1=O` (stereo unspecified): the cytotoxicity at 70.5 h was -8.14%.

As for `CC(=O)c1cccc(OCCCC(=O)N(C)Cc2ccccn2)c1`, the cytotoxicity at 70.5 h was -2.88%.

As for `COc1ccc(C(C)=O)c(OCC(=O)NC(C)c2ccc(F)cc2)c1` (stereo unspecified), the cytotoxicity at 70.5 h is -14.9%. As for `CCc1nnsc1C(=O)NC1CCN(c2ccccn2)CC1`, the cytotoxicity at 70.5 h is 11.2%.

As to `CN1CCN(Cc2ccccc2CNC(=O)c2ccc(Br)cc2F)CC1`, the cytotoxicity at 70.5 h is -4.3%. The figure for `Cc1noc(C)c1CCC(=O)NC(C)c1nnc2n1CCC2` (stereo unspecified) is 8.52%; for `Cc1ccc(C(C)NC(=O)Nc2ccccc2CN2CCOCC2)o1` (stereo unspecified) it is -11.2%; for `CN(C(=O)C1CSCN1S(=O)(=O)c1ccc(F)cc1)C1CC1` (stereo unspecified) it is -9.65%. The result for `CC(C)C(C)NC(=O)Nc1ccccc1CN1CCOCC1` (stereo unspecified) reads -8.46%. As to `c1cc(CNCc2ccnc(N3CCOCC3)c2)c2c(c1)OCCO2`, the cytotoxicity at 70.5 h is -9.77%. Regarding `CC(=O)N(C)CC(=O)Nc1cccc(N2CCN(CC3CC3)CC2)c1`, the cytotoxicity at 70.5 h was -7.37%. The result for `Cc1cn(CC(=O)NC2CCN(C(=O)C3CC3)CC2)c2ccccc12` reads -9.4%; that for `Cc1cc2n(n1)CC(CNC1CCN(c3ccc(F)cc3)CC1)CN2` (stereo unspecified), -5.25%; that for `COCc1cccc(NC(C)C(=O)N(C)Cc2cccc(F)c2)c1` (stereo unspecified), -2.97%. In the case of `COc1ccc(CNC(=O)CNc2cc3c(cc2Cl)OCCCO3)cc1`, the cytotoxicity at 70.5 h was -5.19%.

Turning to `CCc1ccc(C(=O)NC2CCN(c3cnn(C)c3)C2=O)o1` (stereo unspecified), the cytotoxicity at 70.5 h was -9%. The figure for `CCC(CC)c1cc(CNC(=O)N2CCOC(C)C2)on1` (stereo unspecified) is -9.44%; for `O=C1CC2(CCCCC2)CC(=O)N1CC(O)COCc1ccc(Cl)cc1` (stereo unspecified) it is -6.34%; for `CCOC(=O)NC(CNC(=O)CCc1ccccn1)CC(C)C` (stereo unspecified) it is -8.82%.

In the case of `Cc1cc2c(cc1C)C(NCc1nnc3n1CCCCC3)CCCO2` (stereo unspecified), the cytotoxicity at 70.5 h is -7.63%. Take `Cc1ccc2c(c1)OCCCC2NCc1nnc2n1CCCCC2` (stereo unspecified): the cytotoxicity at 70.5 h is -6.04%. The figure for `CCN1CCN(c2ccc(F)cc2C(C)NCc2noc(C)n2)CC1` (stereo unspecified) is -7.42%; for `CC(O)CN1CCN(C(=O)CN(C)c2cnccn2)CC1` (stereo unspecified) it is -8.51%. In the case of `CC(O)CN1CCN(C(=O)CN(C)c2ccc(Cl)cn2)CC1` (stereo unspecified), the cytotoxicity at 70.5 h is -12.2%. The figure for `CC(CNC(=O)c1ccc(Cl)cc1I)N1CCCC1` (stereo unspecified) is -8.19%; for `Clc1ccc2oc(C3CCN(Cc4cccnc4)CC3)nc2c1` it is 22.9%.

Turning to `O=C(NCC(=O)N1CCCCC1)c1ccc(Cl)cc1I`, the cytotoxicity at 70.5 h is -10.6%. `N#Cc1cccnc1NCCNC(=O)N1CCCC(C(F)(F)F)C1` (stereo unspecified): the cytotoxicity at 70.5 h is -11.9%. As to `CN(Cc1ccc(Cl)s1)C(=O)c1cccc(OCC(N)=O)c1`, the cytotoxicity at 70.5 h was -15.3%. Turning to `O=C(NCCNc1ncccn1)N1CCCC(C(F)(F)F)C1` (stereo unspecified), the cytotoxicity at 70.5 h was -9.23%. On to `O=C(Cc1ccc(F)cc1)NCCNCC1CNc2ccnn2C1` (stereo unspecified), for which the cytotoxicity at 70.5 h was 16.6%. Regarding `CC(C(=O)NCc1ccnc(N(C)C)c1)n1cncn1` (stereo unspecified), the cytotoxicity at 70.5 h was -10.2%.

`O=C(c1cccnc1-n1cncn1)N1CCN(CC2CC2)CC1`: the cytotoxicity at 70.5 h was -7.39%.

As for `COC(=O)c1ccc(C(=O)NS(=O)(=O)c2cncc(Br)c2)cc1`, the cytotoxicity at 70.5 h was -3.96%.

Consider `N#Cc1ccc(C(=O)N2CCn3cc(CN4CCCCC4)nc3C2)cc1`, for which the cytotoxicity at 70.5 h is -11.7%. The result for `COCC(=O)N1CCc2ncc(Cn3cncn3)n2CC1` reads -16.6%; that for `C[C@@H]1CN(C(=O)c2cccn2C)C[C@]12CCN(c1ccsc1)C2=O`, -13.8%; that for `Cc1nc(NCC2CC2)nc2c1COCC21CCN(C(=O)C(C)(C)C)C1` (stereo unspecified), -18.4%.

With `O=C(c1ncccn1)N1CCC[C@]2(C[C@H](OCC3CC3)CO2)C1`, the cytotoxicity at 70.5 h is -16.3%. The figure for `O=C(c1ncccn1)N1CCC[C@]2(C[C@@H](OCC3CC3)CO2)C1` is -16.4%; for `O=C(c1ccc(F)c(F)c1)N1CCC[C@]2(C[C@@H](OCC3CC3)CO2)C1` it is -12.6%.

As for `O=C(c1ccncn1)N1CCC[C@]2(C[C@@H](OCC3CC3)CO2)C1`, the cytotoxicity at 70.5 h was -13.8%. The result for `COCC(=O)N1CCC2(CC1)CN(c1cncnc1)C(=O)CO2` reads -12%; that for `C[C@H]1CN(C(=O)c2ccc[nH]2)C[C@@]12CCN(c1ccsc1)C2=O`, -5.02%. Turning to `COCC(=O)N1CC[C@@H]2O[C@@H](C)C[C@H]2C1`, the cytotoxicity at 70.5 h was -12.2%.

Consider `COCC(=O)N1CC[C@H]2O[C@@H](C)C[C@H]2C1`, for which the cytotoxicity at 70.5 h is -8.73%. Turning to `O=C(c1ccnnc1)N1CCn2cc(CN3CCCCC3)nc2C1`, the cytotoxicity at 70.5 h is -4.84%. Regarding `CC(=O)N1CCOC2(CCCN(C(=O)c3ccc(Cl)cc3)C2)C1` (stereo unspecified), the cytotoxicity at 70.5 h was -15.6%. As to `CCC1COC2(CCN(C(=O)c3ccco3)CC2)C1` (stereo unspecified), the cytotoxicity at 70.5 h is -9.86%.

Consider `Cc1ccc(C(=O)N2CC[C@H]3[C@H]2CCN3CC2CCOCC2)cn1`, for which the cytotoxicity at 70.5 h was -9.27%. Consider `Cc1cccc(C(=O)N2CCCn3c(CN4CCCCC4)nnc3C2)c1`, for which the cytotoxicity at 70.5 h is -11.1%. The result for `Cn1nc(Cn2ccnc2)c2c1CN(C(=O)c1ccc[nH]1)C2` reads -10.6%; that for `CCN(C)c1ncnc2c1CCN(C(=O)c1cccn1C)CC2`, 21%. The result for `O=C(c1ccoc1)N1CCCn2nnc(COCC3CC3)c2C1` reads -4.24%; that for `CNC(=O)[C@@]12CCO[C@@H]1CCN(S(=O)(=O)c1ccc(C)cc1)C2`, -4.45%. The figure for `Cn1cc(C[C@H]2[C@H](N3CCOCC3)CCN2C(=O)c2ccc[nH]2)cn1` is -20.8%; for `O=C(c1cnccn1)N1CC[C@H]2[C@@H]1CCC(=O)N2c1cccnc1` it is -17.4%; for `CS(=O)(=O)CC(=O)N1C[C@@H]2CN(Cc3ccoc3)CCO[C@@H]2C1` it is -12%. For `Cc1noc([C@@H]2CCO[C@@H]3CCN(Cc4cccs4)C[C@@H]32)n1`, the cytotoxicity at 70.5 h came out at 9.6%.

On to `Cc1cnc(N2Cc3cnn(Cc4ccc(F)cc4)c3C2)nc1N(C)C`, for which the cytotoxicity at 70.5 h is -0.641%. `Cc1ccc(NC(=O)CNC(C)CN2CCOCC2)c(F)c1` (stereo unspecified): the cytotoxicity at 70.5 h was -9.12%. Turning to `Cc1ccccc1CN(CCN(C)C)Cc1ccc(C(=O)O)cc1`, the cytotoxicity at 70.5 h is -5.98%. The figure for `Cn1ncc2c(N3CCS(=O)(=O)CC3)nc(C3CCCC3)nc21` is -6%; for `CC(C)[C@H]1COC(=O)N1Cc1noc(-c2ccccc2)n1` it is -7.59%. The figure for `O=C(Nc1cnn(CC(=O)N2CCCO2)c1)c1ccccc1` is 8.2%; for `O=C(NCCn1ccnc1C1CCOC1)c1cccnc1` (stereo unspecified) it is -1.19%.

For the molecule `O=S(=O)(NCC1COc2ccccc2C1)N1CCCC1` (stereo unspecified), the cytotoxicity at 70.5 h was -2.58%. As for `c1cc(CNCc2ccc3c(c2)CCO3)cc(N2CCOCC2)n1`, the cytotoxicity at 70.5 h is -9.64%.

Regarding `O=C1NC2(CCNCC2)CC1c1ccccc1` (stereo unspecified), the cytotoxicity at 70.5 h turned out to be 30.9%. As for `O=C1NC2(CCNCC2)CC1c1ccncc1` (stereo unspecified), the cytotoxicity at 70.5 h is 10.1%. On to `Cc1cccc(C(=O)N2C[C@@H](C)[C@@]3(CCN(c4ccsc4)C3=O)C2)n1`, for which the cytotoxicity at 70.5 h is -16.4%. The figure for `Cc1ccc(C(=O)N2CC[C@H]3[C@H]2CCN3CC2CCOCC2)cc1F` is 3.15%; for `Cc1ccoc1C(=O)N1Cc2c(Cn3ccnc3)nn(C)c2C1` it is 20.4%; for `O=C(c1ccccc1F)N1CCCn2c(CN3CCCCC3)nnc2C1` it is -6.86%. As to `Cc1cccc(COC[C@@H]2CC[C@H]3[C@H](CCN3C(=O)CC3CC3)O2)n1`, the cytotoxicity at 70.5 h was -6.33%. The figure for `O=C(c1cccc(Cl)c1)N1CC[C@H]2[C@H]1CCN2CC1CC1` is -9.45%. With `O=C(c1ccccc1)N1CCCn2c(CN3CCCCC3)nnc2C1`, the cytotoxicity at 70.5 h was 26.2%. For `Cn1ccnc1CN1CCC2(CC1)CN(c1cncnc1)C(=O)CO2`, the cytotoxicity at 70.5 h was -3.27%.

Consider `Cn1ccnc1CN1CCC2(CC(=O)N(c3ccsc3)C2)C1` (stereo unspecified), for which the cytotoxicity at 70.5 h was -8.8%.

Regarding `Cc1ccc(N2CC3(CCN(Cc4nccn4C)C3)CC2=O)s1` (stereo unspecified), the cytotoxicity at 70.5 h is -14.5%. The figure for `CCN(C)c1ncnc2c1CCN(CC1CCOC1)CC2` (stereo unspecified) is -8.27%; for `Cn1cc(C(=O)N2CC[C@@H]3[C@@H]2CCN3Cc2ccccc2)cn1` it is -15%; for `O=C(c1cscn1)N1CCC2(CCN(Cc3nccs3)CC2)C1` it is -23.5%. The result for `CCN1C(=O)CCC12CCCN(Cc1nccs1)C2` (stereo unspecified) reads -13.8%; that for `CN1C(=O)CCC12CCCN(Cc1nccs1)C2` (stereo unspecified), 23.1%. In the case of `CN(Cc1ccccn1)C1CC2(CCN(Cc3ccccn3)CC2)C1`, the cytotoxicity at 70.5 h was -10.9%. Consider `CN(Cc1ccco1)[C@@H]1CN(Cc2ccc(F)cc2)[C@@H]2CCCO[C@H]12`, for which the cytotoxicity at 70.5 h is 6.23%. The figure for `O=C(Cc1ccccn1)N1CCC2(CC1)CN(c1ncccn1)CCO2` is -10.3%. The figure for `COCC1CN(C(=O)Cc2ccccn2)Cc2c1cnn2CC1CC1` (stereo unspecified) is -13.1%.

On to `Cc1noc(C)c1CN1C[C@@H](N(C)Cc2ccco2)[C@H]2OCCC[C@H]21`, for which the cytotoxicity at 70.5 h was -6.48%. As to `Cc1noc(C)c1CN1CCN(C)c2ncccc2C1`, the cytotoxicity at 70.5 h was -5.95%.

For the molecule `Cn1ccnc1CN1CCC2(CC(=O)N(c3ccccn3)C2)C1` (stereo unspecified), the cytotoxicity at 70.5 h was -10.7%. `O=C(NCc1ccccn1)[C@@H]1CC[C@@H]2[C@@H](CCN2c2ncc(F)cn2)O1`: the cytotoxicity at 70.5 h was -11.3%.

In the case of `Cn1cc(C(=O)N2CC[C@@H]3[C@@H]2CCN3Cc2ccncc2)cn1`, the cytotoxicity at 70.5 h was -12.1%. As for `COc1ccc(CN2C[C@@H]3OCCN(CCN4CCCC4)[C@@H]3C2)cc1`, the cytotoxicity at 70.5 h was 11.2%.

In the case of `CCCc1ccc(C(=O)N2Cc3c(Cn4ccnc4)nn(C)c3C2)cc1`, the cytotoxicity at 70.5 h is -8.3%.
